Measured values published in paper PMC11079024, “Identification of a family of species-selective complex I inhibitors as potential anthelmintics” (Nature Communications, 2024).
Like-named read-outs stand apart in the source and are kept apart here.

Target: C. elegans (N2) complex I (NADH:ubiquinone oxidoreductase) (Caenorhabditis elegans, UniProt P24887+Q93873+Q94360)
Experiment: biochemical
Type: biochemical
Method in brief: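 Complex I rate: initial linear slope of A600 over 15 min, expressed as percent of solvent control. Triple freeze-thawed mitochondria (0.2 mg/mL) in KPi pH 7.5, BSA 3 mg/mL, NADH 80 μM, decylubiquinone 60 μM, DCIP 160 μM, antimycin A, KCN.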

[1] = wild-type C. elegans, mean of replicates, read-out: in vitro complex I activity relative to solvent control, Mean
[2] = wild-type C. elegans, single replicate, read-out: in vitro complex I activity relative to solvent control, individual replicate

C. elegans (N2) complex I (NADH:ubiquinone oxidoreductase), sequence (Q94360 17-199): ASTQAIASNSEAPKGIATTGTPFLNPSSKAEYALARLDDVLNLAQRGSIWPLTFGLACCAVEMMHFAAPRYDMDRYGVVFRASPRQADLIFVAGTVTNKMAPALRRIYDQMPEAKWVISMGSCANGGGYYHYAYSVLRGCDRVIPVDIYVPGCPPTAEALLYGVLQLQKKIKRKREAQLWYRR
C. elegans (N2) complex I (NADH:ubiquinone oxidoreductase), sequence (P24887 whole entry): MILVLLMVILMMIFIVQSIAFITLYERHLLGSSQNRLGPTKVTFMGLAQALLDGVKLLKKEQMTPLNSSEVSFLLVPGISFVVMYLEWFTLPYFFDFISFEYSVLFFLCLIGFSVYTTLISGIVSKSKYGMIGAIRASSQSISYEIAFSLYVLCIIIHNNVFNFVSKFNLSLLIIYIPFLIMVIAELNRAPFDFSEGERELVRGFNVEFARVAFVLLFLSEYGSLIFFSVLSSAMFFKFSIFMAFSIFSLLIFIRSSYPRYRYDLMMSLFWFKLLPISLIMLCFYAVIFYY
C. elegans (N2) complex I (NADH:ubiquinone oxidoreductase), sequence (Q93873 31-482): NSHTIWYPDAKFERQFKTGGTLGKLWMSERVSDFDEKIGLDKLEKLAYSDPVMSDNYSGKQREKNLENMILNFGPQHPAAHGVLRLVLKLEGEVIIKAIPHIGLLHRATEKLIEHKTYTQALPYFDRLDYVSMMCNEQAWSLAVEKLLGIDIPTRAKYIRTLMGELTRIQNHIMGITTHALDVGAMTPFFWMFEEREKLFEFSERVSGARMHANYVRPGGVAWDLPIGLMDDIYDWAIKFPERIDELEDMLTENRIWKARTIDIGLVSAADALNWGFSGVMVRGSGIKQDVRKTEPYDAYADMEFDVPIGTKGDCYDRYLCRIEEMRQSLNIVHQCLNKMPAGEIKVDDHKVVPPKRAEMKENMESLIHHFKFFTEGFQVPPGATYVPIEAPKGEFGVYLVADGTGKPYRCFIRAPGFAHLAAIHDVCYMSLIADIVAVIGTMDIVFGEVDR

CC(C)(C)c1ccc(CCOc2ncnc3ccccc23)cc1 [Fenazaquin, reference compound]
remaining activity at 0.0001 µM (dose 0.0001 µM, wild-type C. elegans, mean of replicates, read-out: in vitro complex I activity relative to solvent control, Mean): 94.3% | remaining activity at 0.0005 µM (dose 0.0005 µM, wild-type C. elegans, mean of replicates, read-out: in vitro complex I activity relative to solvent control, Mean): 89.7% | remaining activity at 0.001 µM [1]: 82.5% | remaining activity at 0.001 µM [2]: 80.4% | remaining activity at 0.0025 µM [1]: 63.3% | remaining activity at 0.0025 µM [2]: 63.7% | remaining activity at 0.005 µM [1]: 42.1% | remaining activity at 0.005 µM [2]: 42.3% | remaining activity at 0.013 µM [1]: 24% | remaining activity at 0.013 µM [2]: 25.6% | remaining activity at 0.025 µM (dose 0.025 µM, wild-type C. elegans, mean of replicates, read-out: in vitro complex I activity relative to solvent control, Mean): 12.5% | remaining activity at 0.063 µM (dose 0.063 µM, wild-type C. elegans, mean of replicates, read-out: in vitro complex I activity relative to solvent control, Mean): 5.41% | remaining activity at 0.125 µM (dose 0.125 µM, wild-type C. elegans, mean of replicates, read-out: in vitro complex I activity relative to solvent control, Mean): 2.53% | remaining activity at 0.313 µM (dose 0.313 µM, wild-type C. elegans, mean of replicates, read-out: in vitro complex I activity relative to solvent control, Mean): 1.71% | remaining activity at 0.625 µM (dose 0.625 µM, wild-type C. elegans, mean of replicates, read-out: in vitro complex I activity relative to solvent control, Mean): 2.18% | remaining activity at 1.5 µM (dose 1.5 µM, wild-type C. elegans, mean of replicates, read-out: in vitro complex I activity relative to solvent control, Mean): 1.91% | remaining activity at 3 µM (dose 3 µM, wild-type C. elegans, mean of replicates, read-out: in vitro complex I activity relative to solvent control, Mean): 1.48% | remaining activity at 15 µM (dose 15 µM, wild-type C. elegans, mean of replicates, read-out: in vitro complex I activity relative to solvent control, Mean): 1.53% | remaining activity at 37.5 µM (dose 37.5 µM, wild-type C. elegans, mean of replicates, read-out: in vitro complex I activity relative to solvent control, Mean): 1.86% | remaining activity at 75 µM (dose 75 µM, wild-type C. elegans, mean of replicates, read-out: in vitro complex I activity relative to solvent control, Mean): 3.14% | IC50 (wild-type (N2) mitochondria, read-out: C. elegans Complex I IC50): 4.2 nM
